Values after ≈ are worked out from the molar mass of the structure shown. Where two headings read alike, the source gives them in different places.
Columns and labels:
[1] = system: human promyelocytic leukemia (HL-60); assay: Growth inhibition of human cell line HL-60; settings: for GI50: read-out: GI50 (μM) HL60, human cell line HL60
[2] = molecular target: SrcKD (Homo sapiens (Human), UniProt P12931); assay: Tyrosine kinase IC50, SrcKD; type: biochemical
[3] = system: colorectal carcinoma (HC 2998); assay: Growth inhibition of human cell line HC 2998; settings: for GI50: read-out: GI50 (μM) HCC2998, human cell line HCC2998
[4] = system: human lymphocyte (CRL8155); assay: Growth inhibition of human cell line CRL8155; settings: for GI50: read-out: GI50 (μM) CRL8155, human cell line CRL8155
[5] = molecular target: SRC (Homo sapiens (Human), UniProt P12931)
[6] = molecular target: CpCDPK1 (Cryptosporidium parvum (strain Iowa II), UniProt A3FQ16); assay: biochemical; type: biochemical
[7] = system: glioma derived (SF539); assay: Growth inhibition of human cell line SF539; settings: for GI50: read-out: GI50 (μM) SF539, human cell line SF539
[8] = molecular target: AblKD (Homo sapiens (Human), UniProt P00519); assay: Tyrosine kinase IC50, AblKD; type: biochemical; settings: Table 9
[9] = molecular target: PfCDPK1 (Plasmodium falciparum (isolate 3D7), UniProt P62344); assay: biochemical
[10] = molecular target: Src3D (Homo sapiens (Human), UniProt P12931); assay: biochemical
[11] = molecular target: PfCDPK4 (Plasmodium falciparum (isolate 3D7), UniProt Q8IBS5); assay: biochemical
[12] = molecular target: HckKD (Homo sapiens (Human), UniProt P08631); assay: Tyrosine kinase IC50, HckKD; type: biochemical; settings: Table 9
[13] = Solubility in buffers of various pH; type: physicochemical; settings: buffer
[14] = in vivo; settings: mouse, ip
[15] = Blood levels after oral gavage dosing of mice (LC-MS)
[16] = system: human fibroblast; assay: Human fibroblast replication / cytotoxicity (Alamar blue); type: cell-based
[17] = system: C. parvum; assay: Immunosuppressed (SCID-beige) mouse C. parvum model; type: in vivo, Cryptosporidium parvum; settings: SCID-beige mice; oral gavage once a day, days 3-7 and 10-14; 29 and 150 at 50 mg/kg/day, Paromomycin 2 g/kg/day
Description: Shown are mean of the parasite numbers detected in 25 mg of stool from each mouse, by qRT-PCR.

[18] = system: P. berghei expressing GFP; assay: P. berghei transmission from treated mice to A. stephensi; settings: mice treated i.p., Compound 29 at 10 mg/kg; mosquitoes fed 30 minutes after dosing
[19] = Table 8, read-out: IC50 (μM) CpCDPK1
[20] = pH 6.5, aqueous buffer, read-out: Experimental Solubility pH 6.5

SMILES	Cell Toxicity HL60, % at 10 μM [1]	Cell Toxicity HCC2998, % at 10 μM [3]	IC50 [8]	Cell Toxicity CRL8155, % at 10 μM [4]	IC50 [6, 19]	Cell Toxicity SF539, % at 10 μM [7]	EC50 [9]	EC50 [11]	IC50 ([2]; Table 9)	further results
CC(C)(C)n1nc(-c2cccc3ccccc23)c2c(N)ncnc21 [Compound 1, 1-tert-butyl-3-(naphthalen-1-yl)-1H-pyrazolo[3,4-d]pyrimidin-4-amine]										GI50 [1]: > 10 µM; IC50 [2]: 1.3 µM; GI50 [3]: > 10 µM; GI50 [4]: > 10 µM; inhibition of SRC (in words) [5]: do not potently inhibit; IC50 ([5]; read-out: IC50 (μM) Src): 1.3 µM; IC50 ([6]; read-out: IC50 (μM) CpCDPK1): > 3 µM; GI50 [7]: > 10 µM
CC(C)(C)n1nc(Cc2cccc3ccccc23)c2c(N)ncnc21 [Compound 5d, 1-tert-butyl-3-(naphthalen-1-ylmethyl)-1H-pyrazolo[3,4-d]pyrimidin-4-amine]	<30% at 10 μM	<30% at 10 μM	7.7 µM	<30% at 10 μM	0.144 µM	<30% at 10 μM				GI50 [1]: > 10 µM; GI50 [3]: > 10 µM; GI50 [4]: > 10 µM; IC50 ([6]; read-out: CpCDPK1 IC50): 0.14 µM; GI50 [7]: > 10 µM
CC(C)n1nc(-c2cc3ccccc3[nH]2)c2c(N)ncnc21 [Compound 24, 3-(1H-indol-2-yl)-1-isopropyl-1H-pyrazolo[3,4-d]pyrimidin-4-amine]					0.0704 µM		471 nM	337 nM		IC50 [10]: 1450 nM
CC(C)n1nc(-c2cc3c(Cl)cccc3[nH]2)c2c(N)ncnc21 [Compound 26, 3-(4-chloro-1H-indol-2-yl)-1-isopropyl-1H-pyrazolo[3,4-d]pyrimidin-4-amine]	45% toxicity at			38% toxicity at	0.0162 µM			544 nM		IC50 [10]: 1240 nM
COc1ccc2cc(-c3nn(CC4CCNCC4)c4ncnc(N)c34)ccc2c1 [Compound 28, 3-(6-methoxynaphthalen-2-yl)-1-(piperidin-4-ylmethyl)-1H-pyrazolo[3,4-d]pyrimidin-4-amine]	<30% at 10 μM	<30% at 10 μM	> 20 µM	<30% at 10 μM	0.0023 µM	<30% at 10 μM	739 nM	18.8 nM	> 20 µM	IC50 [12]: > 10 µM; solubility ([13]; aqueous buffer, pH 2.0, read-out: Experimental Solubility pH 2.0): 49 µM (≈ 19 µg/mL); solubility [13, 20]: 58 µM (≈ 22.5 µg/mL); solubility ([13]; pH 7.4, aqueous buffer, read-out: Experimental Solubility pH 7.4): 56 µM (≈ 21.8 µg/mL); AUC [14]: 151 µM·h; Cmax [14]: 84.1 µM; Tmax [14]: 40 min; Cell Toxicity HL60, % at 30 μM [1]: <30% at 30 μM; Cell Toxicity CRL8155, % at 30 μM [4]: <30% at 30 μM; AUC ([15]; mouse, in vivo, po): 20.5 µM·h; Cmax ([15]; mouse, in vivo, po): 4410 nM; Tmax ([15]; mouse, in vivo, po): 2.67 h
Nc1ncnc2c1c(-c1cnc3ccccc3c1)nn2CC1CCNCC1 [Compound 30, 1-(piperidin-4-ylmethyl)-3-(quinolin-3-yl)-1H-pyrazolo[3,4-d]pyrimidin-4-amine]	<30% at 10 μM	<30% at 10 μM	> 20 µM	<30% at 10 μM	0.0837 µM	<30% at 10 μM			> 20 µM	Cell Toxicity HL60, % at 30 μM [1]: <30% at 30 μM; Cell Toxicity CRL8155, % at 30 μM [4]: <30% at 30 μM
CCCCOc1ccc2cc(-c3nn(CC4CCNCC4)c4ncnc(N)c34)ccc2c1 [Compound 35, 3-(6-butoxynaphthalen-2-yl)-1-(piperidin-4-ylmethyl)-1H-pyrazolo[3,4-d]pyrimidin-4-amine]	<30% at 10 μM	<30% at 10 μM		<30% at 10 μM	0.0044 µM	<30% at 10 μM	151 nM	31.2 nM		IC50 [12]: > 10 µM; solubility [13, 20]: 45 µM (≈ 19.4 µg/mL); Observed HFF Toxicity (T at concentration) [16]: 25 to 100 µM
C=CCOc1ccc2cc(-c3nn(CC4CCNCC4)c4ncnc(N)c34)ccc2c1 [Compound 36, 3-(6-(allyloxy)naphthalen-2-yl)-1-(piperidin-4-ylmethyl)-1H-pyrazolo[3,4-d]pyrimidin-4-amine]	<30% at 10 μM	<30% at 10 μM		<30% at 10 μM		<30% at 10 μM	146 nM	15.7 nM		IC50 [12]: > 10 µM; Observed HFF Toxicity (T at concentration) [16]: T at 100 μM; AUC ([15]; mouse, in vivo, po): 1.83 µM·h; Cmax ([15]; mouse, in vivo, po): 590 nM; Tmax ([15]; mouse, in vivo, po): 3.67 h
Nc1ncnc2c1cnn2CC1CCNCC1 [Compound 99]			> 10 µM						> 10 µM	
CC(C)(C)n1ncc2c(N)ncnc21 [Compound 123]			> 10 µM						> 10 µM	
CC(C)(C)n1nc(-c2ccccc2)c2c(N)ncnc21 [Compound 140]			0.636 µM				337 nM	399 nM		solubility [13, 20]: 22 µM (≈ 5.88 µg/mL)
CCOc1ccc2cc(-c3nn(CC4CCN(C)CC4)c4ncnc(N)c34)ccc2c1 [Compound 150, 3-(6-ethoxynaphthalen-2-yl)-1-((1-methylpiperidin-4-yl)methyl)-1H-pyrazolo[3,4-d]pyrimidin-4-amine]	<30% at 10 μM		> 3 µM	<30% at 10 μM				33.7 nM	> 10 µM	Cell Toxicity HL60, % at 30 μM [1]: <30% at 30 μM; parasites in stool (qRT-PCR) at the end of treatment [17]: not detected; Observed HFF Toxicity (T at concentration) [16]: T at 25 μM; Cell Toxicity CRL8155, % at 30 μM [4]: <30% at 30 μM; Blood level, First Peak ([15]; mice, 40 mg/kg oral gavage 3x daily for 4 days, 1 hr after first dose, mean±SD, N=3): 2.1 ± 1.2 µM; Blood level, Fourth D4 Peak ([15]; mice, 40 mg/kg oral gavage 3x daily for 4 days, 1 hr after third dose of d4, mean±SD, N=3): 8.9 ± 3.4 µM; Blood level, First Trough ([15]; mice, 40 mg/kg oral gavage 3x daily for 4 days, 17 hours after dosing, beginning of d2, mean±SD, N=3): 2.0 ± 1.6 µM; Cmax ([15]; mouse, in vivo, po, 10 mg/kg): 800 nM; Tmax ([15]; mouse, in vivo, po, 10 mg/kg): 2.15 h; concentration at 17 h ([15]; mouse, in vivo, po, 40 mg/kg): 6.3 ± 1.8 µM; IC50 [11]: 10 nM
CC(C)(C)n1nc(-c2ccc3ccccc3c2)c2c(N)ncnc21 [NA-PP2, reference compound]										formation of oocysts in A. stephensi fed on treated mice [18]: hundreds of oocysts per mosquito
NC[C@@H]1O[C@H](O[C@H]2[C@@H](O)[C@H](O[C@@H]3[C@@H](O)[C@H](N)C[C@H](N)[C@H]3O[C@H]3O[C@H](CO)[C@@H](O)[C@H](O)[C@H]3N)O[C@@H]2CO)[C@H](N)[C@@H](O)[C@@H]1O [Paromomycin, reference compound]										parasite burden rebound after treatment [17]: quickly rebounded; parasites in stool (qRT-PCR) at the end of treatment [17]: not detected

Source: patent US9765037B2, “Compositions and methods for treating toxoplasmosis, cryptosporidiosis, and other apicomplexan protozoan related diseases” (University of Washington Through its Center for …, priority 2010, dated 2017)
